Experimental data from patent US11053234B2 (GlaxoSmithKline Intellectual Property Development Limited, priority 2016, dated 2021).
Counter-ions that a name gives are not always drawn.

Target: T1, haematopoietic prostaglandin D synthase (H-PGDS) (Homo sapiens, UniProt O60760)
T1 construct: Full length human H-PGDS cDNA (Invitrogen Ultimate ORF 10H13026) was amplified by PCR; 6-His (N); TEV protease cleavage site (N); made in house; host or cells: E. coli BL21 (DE3*), vector pET22b+
Assay: H-PGDS RapidFire high throughput mass spectrometry assay (conversion of PGH2 to PGD2)
Type: biochemical
Conditions: 10 nM H-PGDS, PGH2 formed in situ by COX-2 from arachidonic acid; read-out: Potency Range (mean pIC50) (converted)
How it was run: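 PGH2 substrate generated in situ by COX-2 (full-length human, FLAG-tagged, Sf9-expressed) from arachidonic acid at ˜10 μM, then converted by full-length human His-tagged H-PGDS (E. coli-expressed). RapidFire SPE–triple quadrupole MS measured PGD2 against PGF2α as substrate surrogate to give percent conversion.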

T1 sequence (O60760 whole entry): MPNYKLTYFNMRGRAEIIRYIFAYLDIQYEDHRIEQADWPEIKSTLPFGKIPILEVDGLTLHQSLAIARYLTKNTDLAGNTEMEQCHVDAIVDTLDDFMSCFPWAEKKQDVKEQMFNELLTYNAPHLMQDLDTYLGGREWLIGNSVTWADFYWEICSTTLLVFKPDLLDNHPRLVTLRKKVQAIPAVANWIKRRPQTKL

Row | SMILES | IC50
1 | CC(C)(C)c1nsc(NC(=O)N2CC(Oc3cccc4scnc34)C2)n1 [Example 339] | 10 to 79.4 nM
2 | O=C(Nc1cccc(N2CCOCC2)c1)N1CC(Oc2cccc3scnc23)C1 [Example 309, 3-(Benzo[d]thiazol-4-yloxy)-N-(3-morpholinophenyl)azetidine-1-carboxamide] | 100 to 1000 nM
3 | CC(C)(O)c1csc(NC(=O)[C@H]2C[C@H](Oc3cccc4scnc34)C2)n1 [Example 55, (trans)-3-(Benzo[d]thiazol-4-yloxy)-N-(4-(2-hydroxypropan-2-yl)thiazol-2-yl)cyclobutanecarboxamide] | 10 to 79.4 nM
4 | CC(C)c1csc(NC(=O)[C@H]2C[C@H](Oc3cccc4cccnc34)C2)n1 [Example 206, (trans)-N-(4-Isopropylthiazol-2-yl)-3-(quinolin-8-yloxy)cyclobutanecarboxamide] | < 10 nM
5 | CCOCCNC(=O)c1ccc(N2CC(NC(=O)[C@H]3C[C@H](Oc4cc(F)cc5scnc45)C3)C2)nn1 [Example 234, N-(2-Ethoxyethyl)-6-(3-((trans)-3-((6-fluorobenzo[d]thiazol-4-yl)oxy)cyclobutanecarboxamido)azetidin-1-yl)pyridazine-3-carboxamide] | 10 to 79.4 nM
6 | O=C(Nc1nccs1)[C@H]1C[C@H](Oc2cccc(Cl)c2)C1 [Example 287, (trans)-3-(3-Chlorophenoxy)-N-(thiazol-2-yl)cyclobutanecarboxamide] | 10 to 79.4 nM
7 | Cc1nc(NC(=O)N2CC(Oc3cccc4scnc34)C2)ns1 [Example 336, 3-(Benzo[d]thiazol-4-yloxy)-N-(5-methyl-1,2,4-thiadiazol-3-yl)azetidine-1-carboxamide] | 10 to 79.4 nM
8 | COCCO[C@H]1CC[C@H](NC(=O)N2CC(Oc3cc(F)cc4scnc34)C2)CC1 [Example 128, 3-((6-Fluorobenzo[d]thiazol-4-yl)oxy)-N-((trans)-4-(2-methoxyethoxy)cyclohexyl)azetidine-1-carboxamide] | 10 to 79.4 nM
9 | CC(C)(O)[C@@H]1CC[C@@H](NC(=O)N2CC(Oc3cc(F)cc4scnc34)C2)CO1 (racemic) [Example 127, Racemic 3-((6-Fluorobenzo[d]thiazol-4-yl)oxy)-N-((trans)-6-(2-hydroxypropan-2-yl)tetrahydro-2H-pyran-3-yl)azetidine-1-carboxamide] | 10 to 79.4 nM
10 | O=C(c1csc(NC(=O)[C@H]2C[C@H](Oc3cc(F)ccc3OC(F)F)C2)n1)C1CC1 [Example 32, (trans)-N-(4-(Cyclopropanecarbonyl)thiazol-2-yl)-3-(2-(difluoromethoxy)-5-fluorophenoxy)cyclobutanecarboxamide] | < 10 nM
11 | CC(O)([C@H]1CC[C@H](NC(=O)[C@H]2C[C@H](Oc3cc(F)ccc3OC(F)F)C2)CC1)C(F)(F)F (mixture of isomers) [Example 28, Racemic (trans)-3-(2-(Difluoromethoxy)-5-fluorophenoxy)-N-((trans)-4-(1,1,1-trifluoro-2-hydroxypropan-2-yl)cyclohexyl)cyclobutanecarboxamide] | 10 to 79.4 nM
12 | CC(C)(O)[C@H]1CC[C@H](NC(=O)[C@H]2C[C@H](Oc3cc(F)cc4ccoc34)C2)CC1 [Example 227, (trans)-3-((5-Fluorobenzofuran-7-yl)oxy)-N-((trans)-4-(2-hydroxypropan-2-yl)cyclohexyl)cyclobutanecarboxamide] | 10 to 79.4 nM
13 | CCCCn1nnnc1NC(=O)[C@H]1C[C@H](Oc2cc(F)ccc2OC(F)F)C1 [Example 2, (trans)-N-(1-Butyl-1H-tetrazol-5-yl)-3-(2-(difluoromethoxy)-5-fluorophenoxy)cyclobutanecarboxamide] | 10 to 79.4 nM
14 | N#Cc1csc(NC(=O)[C@H]2C[C@H](Oc3cccc4cccnc34)C2)n1 [Example 188, (trans)-N-(4-Cyanothiazol-2-yl)-3-(quinolin-8-yloxy)cyclobutanecarboxamide, trifluoroacetic acid salt] | < 10 nM
15 | COc1ccc(F)cc1O[C@H]1C[C@H](C(=O)NC2CC(=O)Nc3ccccc32)C1 (mixture of isomers) [Example 153, Racemic (trans)-3-(5-Fluoro-2-methoxyphenoxy)-N-(2-oxo-1,2,3,4-tetrahydroquinolin-4-yl)cyclobutanecarboxamide] | 10 to 79.4 nM
16 | COc1ccc(F)cc1O[C@H]1C[C@H](C(=O)NC2CCN(c3ccccn3)CC2)C1 [Example 157, (trans)-3-(5-Fluoro-2-methoxyphenoxy)-N-(1-(pyridin-2-yl)piperidin-4-yl)cyclobutanecarboxamide] | 10 to 79.4 nM
17 | O=C(Nc1nccs1)[C@H]1C[C@H](Oc2ccc(F)c3cccnc23)C1 [Example 291, (trans)-3-((5-Fluoroquinolin-8-yl)oxy)-N-(thiazol-2-yl)cyclobutanecarboxamide, trifluoroacetic acid salt] | 100 to 1000 nM
18 | COc1ccc(F)cc1O[C@H]1C[C@H](C(=O)NC2CN(c3cc(C#N)ccn3)C2)C1 [Example 149, (trans)-N-(1-(4-Cyanopyridin-2-yl)azetidin-3-yl)-3-(5-fluoro-2-methoxyphenoxy)cyclobutanecarboxamide] | < 10 nM

Row | SMILES | IC50
19 | O=C(N[C@H]1C[C@H](Nc2ncccn2)C1)[C@H]1C[C@H](Oc2cccc3scnc23)C1 [Example 73, (trans)-3-(Benzo[d]thiazol-4-yloxy)-N-((trans)-3-(pyrimidin-2-ylamino)cyclobutyl)cyclobutanecarboxamide] | 100 to 1000 nM
20 | CC(C)(O)[C@@H]1CC[C@@H](NC(=O)[C@H]2C[C@H](Oc3cccc4scnc34)C2)CO1 (racemic) [Example 51, Racemic (trans)-3-(Benzo[d]thiazol-4-yloxy)-N-((trans)-6-(2-hydroxypropan-2-yl)tetrahydro-2H-pyran-3-yl)cyclobutanecarboxamide] | 10 to 79.4 nM
21 | CC(N[C@H]1CC[C@H](NC(=O)[C@H]2C[C@H](Oc3cc(F)cc4scnc34)C2)CC1)C(F)F (mixture of isomers) [Example 121, Racemic (trans)-N-((trans)-4-((1,1-Difluoropropan-2-yl)amino)cyclohexyl)-3-((6-fluorobenzo[d]thiazol-4-yl)oxy)cyclobutanecarboxamide] | 10 to 79.4 nM
22 | COCCO[C@H]1CC[C@H](NC(=O)[C@H]2C[C@H](Oc3cccc4scnc34)C2)CC1 [Example 58, (trans)-3-(Benzo[d]thiazol-4-yloxy)-N-((trans)-4-(2-methoxyethoxy)cyclohexyl)cyclobutanecarboxamide] | 100 to 1000 nM
23 | Cc1cnc(NC(=O)[C@H]2C[C@H](Oc3cccc4cccnc34)C2)o1 [Example 177, (trans)-N-(5-Methyloxazol-2-yl)-3-(quinolin-8-yloxy)cyclobutanecarboxamide] | 10 to 79.4 nM
24 | CC(C)(O)c1cnc(NC(=O)[C@H]2C[C@H](Oc3cccc4ccoc34)C2)s1 [Example 265, (trans)-3-(Benzofuran-7-yloxy)-N-(5-(2-hydroxypropan-2-yl)thiazol-2-yl)cyclobutanecarboxamide] | 10 to 79.4 nM
25 | COc1ccc(F)cc1O[C@H]1C[C@H](C(=O)NN2CCc3ccccc32)C1 [Example 146, (trans)-3-(5-Fluoro-2-methoxyphenoxy)-N-(indolin-1-yl)cyclobutanecarboxamide] | 10 to 79.4 nM
26 | O=C(Nc1ccnc(C2CC2)n1)N1CC(Oc2cc(F)cc3scnc23)C1 [Example 313, N-(2-Cyclopropylpyrimidin-4-yl)-3-((6-fluorobenzo[d]thiazol-4-yl)oxy)azetidine-1-carboxamide] | 10 to 79.4 nM
27 | CCOCc1nc(NC(=O)[C@H]2C[C@H](Oc3cc(F)cc4scnc34)C2)n[nH]1 [Example 335] | 10 to 79.4 nM
28 | CC1C(Oc2cc(F)cc3scnc23)CN1C(=O)N[C@H]1CC[C@H](C(C)(C)O)CC1 (mixture of isomers) [Example 236, Racemic 3-((6-Fluorobenzo[d]thiazol-4-yl)oxy)-N-((trans)-4-(2-hydroxypropan-2-yl)cyclohexyl)-2-methylazetidine-1-carboxamide] | 10 to 79.4 nM
29 | COc1ccc(F)cc1O[C@H]1C[C@H](C(=O)Nc2ncc(C(C)(C)O)s2)C1 [Example 165, (trans)-3-(5-Fluoro-2-methoxyphenoxy)-N-(5-(2-hydroxypropan-2-yl)thiazol-2-yl)cyclobutanecarboxamide] | 10 to 79.4 nM
30 | CC(O)(CO[C@H]1CC[C@H](NC(=O)[C@H]2C[C@H](Oc3cc(F)ccc3OC(F)F)C2)CC1)C1CC1 (mixture of isomers) [Example 11, Racemic (trans)-N-((trans)-4-(2-Cyclopropyl-2-hydroxypropoxy)cyclohexyl)-3-(2-(difluoromethoxy)-5-fluorophenoxy)cyclobutanecarboxamide] | 10 to 79.4 nM
31 | COc1ccc(F)cc1O[C@H]1C[C@H](C(=O)NC2CN(c3ncc(C#N)s3)C2)C1 [Example 147, (trans)-N-(1-(5-Cyanothiazol-2-yl)azetidin-3-yl)-3-(5-fluoro-2-methoxyphenoxy)cyclobutanecarboxamide] | 10 to 79.4 nM
32 | O=C(NC1CN(c2ccnc(Cl)n2)C1)[C@H]1C[C@H](Oc2cc(F)ccc2OC(F)F)C1 [Example 6, (trans)-N-(1-(2-Chloropyrimidin-4-yl)azetidin-3-yl)-3-(2-(difluoromethoxy)-5-fluorophenoxy)cyclobutanecarboxamide] | 10 to 79.4 nM
33 | CC(C)c1nnc(NC(=O)[C@H]2C[C@H](Oc3cccc4cccnc34)C2)s1 [Example 198] | 10 to 79.4 nM
34 | CC(C)(O)[C@H]1CC[C@H](NC(=O)N2CC(C(F)c3cccc4cccnc34)C2)CC1 (mixture of isomers) [Example 256, Racemic 3-(Fluoro(quinolin-8-yl)methyl)-N-((trans)-4-(2-hydroxypropan-2-yl)cyclohexyl)azetidine-1-carboxamide] | 100 to 1000 nM
35 | COc1ccc(F)cc1O[C@H]1C[C@H](C(=O)Nc2nnc(C)s2)C1 [Example 166, (trans)-3-(5-Fluoro-2-methoxyphenoxy)-N-(5-methyl-1,3,4-thiadiazol-2-yl)cyclobutanecarboxamide] | 10 to 79.4 nM
